Columns and labels:
[1] = system: mouse reared in long-term isolation; test: Novel object recognition test in psychiatric disorder model mouse reared in long-term isolation, single oral dose (Test Example 3); assay type: in vivo, ddY mouse; conditions: tested 24 hours after administration; for exploratory time of the novel object versus Vehicle group: FIG. 3(A)
Procedure: The action of ameliorating the lowering of the object cognitive function was examined by orally administering the compound A to the mouse reared in long-term isolation. […] In this test, the mouse reared in long-term isolation under the following condition was used as the psychiatric disorder model mouse.
3-weeks-old male ddY mice were purchased from Japan SLC, Inc. The mice were reared in the rearing chamber provided with air conditioner (Conditions: the temperature was 22° C.±1° C., the relative humidity was 50±10%, and the irradiation time was 12 hours (8:00 to 20:00)). The feeding method was that the commercially available MF powdery feed (manufactured by Oriental Yeast Co., ltd.) and tap water were taken freely.
3-weeks-old male ddY mice (n=63) were separately reared in the gray opaque cage (24×17×12 cm) in which the mice could not see the surrounding of the cage for 6 weeks. […] The mice (n=20) collectively reared in a group of 5 mice in the transparent cage (24×17×12 cm) were used as a control group.
Four days prior to the start of the experiment, long-term isolation and group-reared mice were individually acclimated to the test observation box for 10 minutes for three consecutive days. […]
24 hours after the oral administration, the evaluation test for novel object cognitive function was carried out. One object of two objects put in the observation box was replaced with the novel object and the time how long the mouse explored the novel object was measured in the test time of 5 minutes. The object cognitive function of the mouse was evaluated by Discrimination index (%) calculated using the following formula. […]
From the results obtained, the mean (Mean) and the standard error (SEM) were calculated. The significant difference was assessed between the administration group and the control group by using Student's t-test as a method of the statistical processing of the exploratory time and by using Turkey-Kramer's test as a method of the statistical processing of Discrimination index. […]

[2] = system: model mouse with the inflammation in brain induced by administering LPS; test: Forced swimming test in mouse with inflammation in brain induced by LPS (Test Example 5); assay type: in vivo, C57/BL6J mice; conditions: test 24 hours after LPS, FIG. 5
Source text: In regard to the depressive symptoms induced by taking LPS (Lipopolysaccharide), the effect of inhibiting the symptom by oral administration of the compound A was examined. The inflammation in the brain is thought to be one of the main onset factors of depression. It is known that LPS causes the inflammation in the brain by inducing the decrease in brain-derived neurotrophic factor and the variation of the density of dendrite of neuron, activating microglia and the like and induce depressive symptoms. […]
In 24 hours after the intraperitoneal administration of LPS, forced swimming test was conducted. The depressive symptoms were evaluated by measurement of the immobility time.
Water (25±1° C.) was put into the acryl resin cylinder (diameter 19 cm, height 25 cm) up to a height of 13 cm. The subject mouse was forced to swim for 6 minutes one by one and the state was video-recorded. […] “The state that the mouse floated on the water surface without moving its limbs and the like” was regarded as immobility and the Immobility Time (sec.) was measured during the test of 6 minutes.
From the results obtained, the mean (Mean) and the standard error (SEM) were calculated. The significant difference was assessed between the control group and Vehicle group and between the compound A administration group and the […] by using Turkey-Kramer's test. […]

O=C1CC[C@H](Cc2cc(O)cc(O)c2)O1 [compound A, (R)-5-(3,5-dihydroxyphenyl)-γ-valerolactone]
exploratory time of the novel object versus Vehicle group ([1]; oral 10 mg/kg): significantly increased
exploratory time of the novel object versus Vehicle group ([1]; oral 30 mg/kg): significantly increased
Discrimination index ([1]; oral 30 mg/kg, FIG. 3(B)): equal to the score obtained in the group of the mice reared in a group
increase of the immobility time in forced swimming test ([2]; oral 10 mg/kg and 30 mg/kg groups, LPS 0.5 mg/kg i.p. 30 minutes later): reduced
immobility time in forced swimming test ([2]; oral 30 mg/kg, LPS 0.5 mg/kg i.p.): on the same level as that in the control group
